Calls of active or inactive are those of the source.
Columns and labels:
Format in all cases: functional, organism-based
Cryptococcus neoformans = assay: Antimicrobial activity against Cryptococcus neoformans
Candida albicans = assay: Antimicrobial activity against Candida albicans
Staphylococcus aureus [1] = assay: Antimicrobial activity against Staphylococcus aureus
Plasmodium falciparum [2] = assay: Antiplasmodial activity against Plasmodium falciparum W2
Staphylococcus aureus [3] = assay: Antimicrobial activity against methicillin-resistant Staphylococcus aureus
Plasmodium falciparum [4] = assay: Antiplasmodial activity against Plasmodium falciparum D6

Measured: Activity

C=C1CC[C@@H](O)[C@]2(C)CC[C@H](C(=O)C(C)C)[C@@H]12
inactive: all assays above

C=C1CC[C@H](O)[C@@]2(C)CC[C@H](C(=O)C(C)C)[C@@H]12
inactive: all assays above
